Measured values from patent US4206226A (priority 1978, dated 1980).
“And” between values parts separate entries of the source, which are not always exact repeats. Equal values may be shown once.

Experiments:
[1] = Renal Toxicity Screening Protocol, toxicity compared to NSC-119875; format: in vivo; settings: for Body Weight Loss / Clinical Chemistry - Blood Urea Nitrogen / Clinical Chemistry - Creatinine / Clinical Chemistry - Serum Glutamic Pyruvic Transaminase / Hematology - Hematocrit / Hematology - White Blood Cell / Histopathology - Gastrointestinal / Histopathology - Hematopoietic / Histopathology - Lymphatic / Histopathology - Renal: score relative to NSC119875; for TOTAL SCORE: sum of ten parameter scores
[2] = tested on: L1210 leukemia; experiment: L1210 leukemia in BDF1 mice, treatment (ip) on Day 1 only, % increase in life span; format: in vivo
Description: The compound in 1% NaHCO3 solution was tested against the L1210 leukemia in BDF1 mice [10^6 cells given to mice on Day 0, treatment (ip) on Day 1 only] in laboratory and the following % increases in life span (%ILS) were noted: […]

[3] = tested on: L1210 leukemia; experiment: Delayed (Day 3) treatment of L1210 leukemia, compound singly and in combination regimen; format: in vivo, BDF1 mice; settings: for >60 day survivors: Day 3
Description: The compound in 1% NaHCO3 solution was tested against the L1210 leukemia in BDF1 mice [10^6 cells given to mice on Day 0, treatment (ip) on Day 1 only] in laboratory and the following % increases in life span (%ILS) were noted:
The compound singly and in combination regimen
When treatment was delayed until Day 3, 5 mg/kg gave 51% ILS, 42% ILS and 39% ILS in three experiments.

[4] = Approximate LD50; format: in vivo; settings: mice
[5] = tested on: L1210 leukemia; experiment: Second screener, L1210 leukemia, day 1, 5, 9 schedule; format: in vivo, mice; settings: 6.25 mg/kg
Description: The compound was submitted to the Drug Development Branch of the National Cancer Institute and assigned NSC Number 271674. It was screened against the L1210 leukemia on a day 1, 5, 9 schedule and the following results were obtained:

[6] = tested on: L1210 cells; experiment: In vitro growth inhibition of L1210 cells; format: cell-based, murine; settings: growth inhibition by 50 percent
Description: (§1) The ID50 refers to the concentration of test compound required to
(§2) inhibit the growth of either the L1210 or L1210/DDP (NSC119875) resistant

[7] = tested on: L1210/DDP (NSC119875) resistant cells; experiment: In vitro growth inhibition of L1210/DDP (NSC119875 resistant) cells; format: cell-based, murine; settings: growth inhibition by 50 percent
Description: as §1, §2

[8] = tested on: P388 leukemia; experiment: In vivo activity against P388 leukemia; parameters: species or system murine; settings: Days 1,5,9,13, NSC-119875 6.7 mg/kg, NSC-271674 20.0 mg/kg
Description: (§3) Data are expressed as survival in days and as a percentage increase in […]

[9] = tested on: P388/DDP leukemia; experiment: In vivo activity against P388/DDP leukemia with acquired resistance to NSC-119875; parameters: species or system murine
Description: P388/DDP refers to a tumor line with acquired resistance to NSC119875.
as §3

[10] = tested on: B16 melanoma; experiment: Panel of mouse tumors: B16 melanoma, survival time assay; format: in vivo; settings: ip tumor, D1-9 ip
Description: (§4) *Survival time (mean or median) assay
(§5) **Tumor weight inhibition assay.
(§6) Data are expressed as a percentage of the survival time in days or the
(§7) tumor weights in mg of the treated mice divided by the corresponding
(§8) values for the control mice. All testing was performed using both platinu
(§9) compounds in the same experiment. The criteria for activity are as
(§10) follows: confirmed activity (activity from two separate laboratories) of
(§11) % T/C of 150 or more for survival systems and 10% or less for tumor weigh
(§12) inhibition assays. Lower levels of activity such as a % T/C of 125 for
(§13) survival systems and 42% for tumor weight inhibition assays are considere
(§14) statistically significant.

[11] = tested on: L1210; experiment: Panel of mouse tumors: L1210, survival time assay; format: in vivo; settings: ip tumor, D1-9 ip
Description: as §4, §6, §7, §8, §9, §10, §11, §12, §13, §14

[12] = tested on: Lewis lung; experiment: Panel of mouse tumors: Lewis lung, survival time assay; format: in vivo; settings: iv tumor, D1-9 ip
Description: as §4, §6, §7, §8, §9, §10, §11, §12, §13, §14

[13] = tested on: CD8Fl mammary; experiment: Panel of mouse tumors: CD8Fl mammary, tumor weight inhibition assay; format: in vivo; settings: sc tumor, Q7DX5 ip
Description: as §5, §6, §7, §8, §9, §10, §11, §12, §13, §14

[14] = tested on: Colon #38; experiment: Panel of mouse tumors: Colon #38, tumor weight inhibition assay; format: in vivo; settings: sc tumor, D2,9 ip
Description: as §5, §6, §7, §8, §9, §10, §11, §12, §13, §14

[15] = tested on: murine leukemia L1210; experiment: Antileukemic activity in mice against murine leukemia L1210 (general statement); format: in vivo
Description: Some previous platinum chelate compounds show dosage limitation due to renal impairment but the free carboxyl of the present composition offers a possible route of oral […] and absorption by the stomach.

N.N.O=C([O-])C1(C(=O)[O-])CCC1.[Pt+2] [NSC-241240, diamine[1,1cyclobutanedicarboxylato (2)-0,0']platinum]
Body Weight Loss [1]: 1 | Clinical Chemistry - Blood Urea Nitrogen [1]: 1 | Clinical Chemistry - Creatinine [1]: 1 | Clinical Chemistry - Serum Glutamic Pyruvic Transaminase [1]: 3 | Hematology - Hematocrit [1]: 4 | Hematology - White Blood Cell [1]: 3 | Histopathology - Gastrointestinal [1]: 1 | Histopathology - Hematopoietic [1]: 5 | Histopathology - Lymphatic [1]: 1 | Histopathology - Renal [1]: 1 | TOTAL SCORE [1]: 21

NC1CCCCC1N.O=S(=O)([O-])[O-].[Pt+2] (centres unmarked) [NSC-250427, sulfato(1,2diaminocyclohexane)platinum (II)]
Body Weight Loss [1]: 2 | Clinical Chemistry - Blood Urea Nitrogen [1]: 1 | Clinical Chemistry - Creatinine [1]: 1 | Clinical Chemistry - Serum Glutamic Pyruvic Transaminase [1]: 5 | Hematology - Hematocrit [1]: 3 | Hematology - White Blood Cell [1]: 3 | Histopathology - Gastrointestinal [1]: 1 | Histopathology - Hematopoietic [1]: 4 | Histopathology - Lymphatic [1]: 2 | Histopathology - Renal [1]: 2 | TOTAL SCORE [1]: 24

CC(C)N.CC(C)N.[Cl-].[Cl-].[OH-].[OH-].[Pt] [NSC-256927, bisisopropylamine-cis-dichloro-trans-dihydroxy platinum (IV)]
Body Weight Loss [1]: 2 | Clinical Chemistry - Blood Urea Nitrogen [1]: 1 | Clinical Chemistry - Creatinine [1]: 1 | Clinical Chemistry - Serum Glutamic Pyruvic Transaminase [1]: 3 | Hematology - Hematocrit [1]: 4 | Hematology - White Blood Cell [1]: 3 | Histopathology - Gastrointestinal [1]: 1 | Histopathology - Hematopoietic [1]: 4 | Histopathology - Lymphatic [1]: 4 | Histopathology - Renal [1]: 2 | TOTAL SCORE [1]: 25

N[C@@H]1CCCC[C@H]1N.O=C([O-])c1ccc(C(=O)[O-])c(C(=O)[O-])c1.[H+].[Pt+2] [NSC-271674, 4-Carboxyphthalato(1,2-diaminocyclohexane)platinum(II)]
% increases in life span (% ILS) ([2]; 5 mg/kg ip): 70% | % increases in life span (% ILS) ([2]; 10 mg/kg ip): 118% | % increases in life span (% ILS) ([2]; 20 mg/kg ip): 119% | % increases in life span (% ILS) ([2]; 25 mg/kg ip): 139% | % increases in life span (% ILS) ([2]; 40 mg/kg ip): 232% | % increases in life span (% ILS) ([2]; 50 mg/kg ip): 288% | % increases in life span (% ILS) ([2]; 60 mg/kg ip): 174% | % ILS ([3]; 5 mg/kg alone, Day 3 treatment, three experiments): 51% and 42% and 39% | >60 day survivors ([3]; 5 mg/kg with cyclophosphamide (50 mg/kg) and 5-fluorouracil (75 mg/kg)): 8 of 10 | >60 day survivors ([3]; 5 mg/kg with cyclophosphamide (50 mg/kg), two experiments): 3 of 10 and no >60 day survivors | approximate LD50 [4]: ~75 mg/kg | questionably toxic deaths [5]: 2 | ID50 L1210 [6]: 0.30 µg/mL | ID50 L1210/DDP [7]: 0.23 µg/mL | % ILS, P388 [8]: 56% | Survival (Days), P388 ([8]; control 13.3 days): 20.7 days | % ILS, P388/DDP ([9]; Days 1,5,9,13, NSC-119875 6.7 mg/kg, NSC-271674 20.0 mg/kg): 201% | Survival (Days), P388/DDP ([9]; Days 1,5,9,13, NSC-119875 6.7 mg/kg, NSC-271674 20.0 mg/kg, control 11.0 days): 33.3 days | activity against strains of murine leukemia wherein NSC 119875 has exhausted its activity ([9]; murine leukemia strains): appears to be active | % T/C (survival time) ([10]; first line, optimal dose (mg/kg/inj): NSC-119875 2, NSC-271674 6.25): 171% | % T/C (survival time) ([10]; second line, optimal dose (mg/kg/inj): NSC-119875 1, NSC-271674 1.56): 159% | % T/C (survival time) ([11]; first line, optimal dose (mg/kg/inj): NSC-119875 2, NSC-271674 0.78): 174% | % T/C (survival time) ([11]; second line, optimal dose (mg/kg/inj): NSC-119875 2, NSC-271674 1.56): 325% | % T/C (survival time) ([12]; first line, optimal dose (mg/kg/inj): NSC-119875 2, NSC-271674 3.12): 122% | % T/C (survival time) ([12]; second line, optimal dose (mg/kg/inj): NSC-119875 2, NSC-271674 6.25): 127% | % T/C (tumor weight) ([13]; first line, optimal dose (mg/kg/inj): NSC-119875 8, NSC-271674 6.25): 11% | % T/C (tumor weight) ([13]; second line, optimal dose (mg/kg/inj): NSC-119875 8, NSC-271674 25): 25% | % T/C (tumor weight) ([14]; first line, optimal dose (mg/kg/inj): NSC-119875 8, NSC-271674 12.5): 50% | % T/C (tumor weight) ([14]; second line, optimal dose (mg/kg/inj): NSC-119875 16, NSC-271674 50): 33% | testing for renal toxicity ([1]; against NSC 119875): superior results | Body Weight Loss [1]: 3 | Clinical Chemistry - Blood Urea Nitrogen [1]: 1 | Clinical Chemistry - Creatinine [1]: 1 | Clinical Chemistry - Serum Glutamic Pyruvic Transaminase [1]: 3 | Hematology - Hematocrit [1]: 3 | Hematology - White Blood Cell [1]: 3 | Histopathology - Gastrointestinal [1]: 1 | Histopathology - Hematopoietic [1]: 5 | Histopathology - Lymphatic [1]: 1 | Histopathology - Renal [1]: 2 | TOTAL SCORE [1]: 23 | potentiation in a treatment with cyclophosphamide ([15]; CY 50 mg/kg): is potentiated | antileukemic activity ([15]; mice, L1210): has shown antileukemic activity | effective dosages ([15]; mice, L1210): 5-60 mg/kg of body weight
